# *1 amine or outer side, *2 acyl side, *3 side chain or, on linkers, in order; H or OH if unused. Where a SMILES comes first, the peptide text is derived from it. Bridges are numbered along the chain shown (N, C = ends). [ ]: non-standard residue; d: D form. The star is where a group is joined. hPhe(3,5-F2-4-CF3) = N[C@@H](CCc1cc(F)c(C(F)(F)F)c(F)c1)C(=O)O; hPhe(3-Cl-4-CF3) = N[C@@H](CCc1ccc(C(F)(F)F)c(Cl)c1)C(=O)O; NPrPhe(4-CF3) = CCCN[C@@H](Cc1ccc(C(F)(F)F)cc1)C(=O)O; X34 = Cc1ccc(C[C@@H](C(=O)[*:2])N(CCC(C)C)[*:1])cc1; NPrPhe(4-Me) = CCCN[C@@H](Cc1ccc(C)cc1)C(=O)O; NMeGly(cPent) = CN[C@H](C(=O)O)C1CCCC1; NMeD = CN[C@@H](CC(=O)O)C(=O)O; NMeL = CN[C@@H](CC(C)C)C(=O)O; αMeL = CC(C)C[C@](C)(N)C(=O)O; Morpholide = C1CN(*)CCO1; NMeA = CN[C@@H](C)C(=O)O; Ac5c = NC1(C(=O)O)CCCC1; Aze = O=C(O)[C@@H]1CCN1; Sar = CNCC(=O)O
# Key:
# [1] = target: GDP-bound NRAS wild-type protein (Homo sapiens, UniProt P01111); test: Binding to NRAS by surface plasmon resonance (SPR), Single Cycle Kinetics; details: SPR; for NRAS/KRAS (ratio of KD value for NRAS to KD value for KRAS): GDP-bound NRAS wild-type vs GDP-bound KRAS wild-type
# [2] = target: GDP-bound HRAS wild-type protein (Homo sapiens, UniProt P01112); test: Binding to HRAS by surface plasmon resonance (SPR), Single Cycle Kinetics; details: SPR; for HRAS/KRAS (ratio of KD value for HRAS to KD value for KRAS): GDP-bound HRAS wild-type vs GDP-bound KRAS wild-type
# Chain of GDP-bound HRAS wild-type protein (P01112 whole entry): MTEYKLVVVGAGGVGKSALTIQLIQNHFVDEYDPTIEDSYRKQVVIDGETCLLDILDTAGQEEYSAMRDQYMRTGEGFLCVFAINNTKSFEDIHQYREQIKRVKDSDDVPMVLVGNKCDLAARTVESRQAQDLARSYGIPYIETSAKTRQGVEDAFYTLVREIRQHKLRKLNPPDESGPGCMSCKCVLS
# Chain of GDP-bound NRAS wild-type protein (P01111 whole entry): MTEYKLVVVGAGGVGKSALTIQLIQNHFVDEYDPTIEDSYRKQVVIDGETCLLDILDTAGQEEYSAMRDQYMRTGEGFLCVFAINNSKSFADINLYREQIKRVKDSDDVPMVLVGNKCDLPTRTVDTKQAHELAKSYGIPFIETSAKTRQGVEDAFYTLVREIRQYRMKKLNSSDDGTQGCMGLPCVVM
smiles,measurement,setting,value
"CCCN1C(=O)CN(C)C(=O)CN(C)C(=O)[C@H]([C@@H](C)CC)NC(=O)[C@H](CC(C)C)N(C)C(=O)C[C@@H](C(=O)N(C)C)N(C)C(=O)[C@H](C2CCCC2)N(C)C(=O)[C@](C)(CC(C)C)NC(=O)[C@@H]2CCCN2C(=O)[C@H](CCc2cc(F)c(C(F)(F)F)c(F)c2)NC(=O)CN(C)C(=O)[C@@H]1Cc1ccc(C(F)(F)F)cc1 [PP0738] ([NMeL]I[Sar][Sar][NPrPhe(4-CF3)][Sar][hPhe(3,5-F2-4-CF3)]P[αMeL][NMeGly(cPent)][NMeD]-NMe2; lactam N-11)",NRAS/KRAS (ratio of KD value with respect to GDP-bound NRAS wild-type protein to KD value with respect to KRAS),[1],B (a compound having 3 or more and less than 10 is denoted as B)
same,HRAS/KRAS (ratio of KD value with respect to GDP-bound HRAS wild-type protein to KD value with respect to KRAS),[2],B (a compound having 3 or more and less than 10 is denoted as B)
CC[C@H](C)[C@@H]1NC(=O)[C@H](CC(C)C)N(C)C(=O)C[C@@H](C(=O)N2CCOCC2)N(C)C(=O)[C@H](C2CCCC2)N(C)C(=O)C2(CCCC2)NC(=O)[C@@H]2CCCN2C(=O)[C@H](CCc2ccc(C(F)(F)F)c(Cl)c2)NC(=O)CN(C)C(=O)[C@H](Cc2ccc(C)cc2)N(CCC(C)C)C(=O)[C@@H]2CCN2C(=O)[C@H](C)N(C)C1=O [PP0086] ([NMeL]I[NMeA][Aze][X34][Sar][hPhe(3-Cl-4-CF3)]P[Ac5c][NMeGly(cPent)][NMeD]-Morpholide; lactam N-11),NRAS/KRAS (ratio of KD for GDP-bound NRAS wild-type to KD for KRAS),[1],C (A compound having a KD ratio of 0.1 or more and less than 3 is denoted as C)
same,HRAS/KRAS (ratio of KD for GDP-bound HRAS wild-type to KD for KRAS),[2],B (a compound having 3 or more and less than 10 is denoted as B)
CCO[C@@H]1C[C@H]2C(=O)NC3(CC(C)(C)C3)C(=O)N(C)[C@@H](C3CCCC3)C(=O)N(C)[C@H](C(=O)N3CCCC3)CC(=O)N(C)[C@@H](CC)C(=O)N[C@@H]([C@@H](C)CC)C(=O)N(C)CC(=O)N(C)[C@H]3C/C=C\CCN(C3=O)[C@@H](Cc3ccc(C(F)(F)F)cc3)C(=O)N(C)CC(=O)N[C@@H](CCc3cc(F)c(C(F)(F)F)c(F)c3)C(=O)N2C1 [PP1944],NRAS/KRAS (ratio of KD value for NRAS to KD value for KRAS),[1],A (a compound having 10 or more and less than 20 is denoted as A)
same,HRAS/KRAS (ratio of KD value for HRAS to KD value for KRAS),[2],A (a compound having 10 or more and less than 20 is denoted as A)
CC[C@H](C)[C@@H]1NC(=O)[C@H](CC(C)C)N(C)C(=O)C[C@@H](C(=O)N2CCOCC2)N(C)C(=O)[C@H](C2CCCC2)N(C)C(=O)C2(CCCC2)NC(=O)[C@@H]2CCCN2C(=O)[C@H](CCc2ccc(C(F)(F)F)c(Cl)c2)NC(=O)CN(C)C(=O)[C@H](Cc2ccc(F)cc2)N2CCCC[C@@H](C2=O)N(C)C(=O)CN(C)C1=O [PP0530],NRAS/KRAS (ratio of KD value with respect to GDP-bound NRAS wild-type protein to KD value with respect to KRAS),[1],C (A compound having a KD ratio of 0.1 or more and less than 3 is denoted as C)
same,HRAS/KRAS (ratio of KD value with respect to GDP-bound HRAS wild-type protein to KD value with respect to KRAS),[2],B (a compound having 3 or more and less than 10 is denoted as B)
CCO[C@@H]1C[C@H]2C(=O)NC3(CCC3)C(=O)N(C)[C@@H](C3CCCC3)C(=O)N(C)[C@H](C(=O)N(C)C)CC(=O)N(C)[C@@H](CC)C(=O)N[C@@H]([C@@H](C)CC)C(=O)N(C)CC(=O)N(C)[C@H]3C/C=C\CCN(C3=O)[C@@H](Cc3ccc(C(F)(F)F)cc3)C(=O)N(C)CC(=O)N[C@@H](CCc3cc(C)c(Cl)c(C)c3)C(=O)N2C1 [PP1821],NRAS/KRAS (ratio of KD value for NRAS to KD value for KRAS),[1],A (a compound having 10 or more and less than 20 is denoted as A)
same,HRAS/KRAS (ratio of KD value for HRAS to KD value for KRAS),[2],A (a compound having 10 or more and less than 20 is denoted as A)
CCO[C@@H]1C[C@H]2C(=O)NC3(CC(C)(C)C3)C(=O)N(C)[C@@H](C(CC)CC)C(=O)N(C)[C@H](C(=O)N(C)C)CC(=O)N(C)[C@H]3CCCCC/C=C/c4ccc(cc4)C[C@@H](C(=O)N(C)CC(=O)N[C@@H](CCc4ccc(Cl)c(Cl)c4)C(=O)N2C1)N1CC/C=C\C[C@@H](C1=O)N(C)C(=O)CN(C)C(=O)[C@H]([C@@H](C)CC)NC3=O [PP3050],NRAS/KRAS (ratio of KD value with respect to GDP-bound NRAS wild-type protein to KD value with respect to KRAS),[1]; GDP-bound wild-type proteins,AA (a compound having 20 or more is denoted as AA)
same,HRAS/KRAS (ratio of KD value with respect to GDP-bound HRAS wild-type protein to KD value with respect to KRAS),[2]; GDP-bound wild-type proteins,A (a compound having 10 or more and less than 20 is denoted as A)
CCCN1C(=O)[C@@H]2CCN2C(=O)[C@H](C)N(C)C(=O)[C@H]([C@@H](C)CC)NC(=O)[C@H](CC(C)C)N(C)C(=O)C[C@@H](C(=O)N2CCOCC2)N(C)C(=O)[C@H](C2CCCC2)N(C)C(=O)C2(CCCC2)NC(=O)[C@@H]2CCCN2C(=O)[C@H](CCc2ccc(C(F)(F)F)c(Cl)c2)NC(=O)CN(C)C(=O)[C@@H]1Cc1ccc(C)cc1 [PP0052] ([NMeL]I[NMeA][Aze][NPrPhe(4-Me)][Sar][hPhe(3-Cl-4-CF3)]P[Ac5c][NMeGly(cPent)][NMeD]-Morpholide; lactam N-11),NRAS/KRAS (ratio of KD for GDP-bound NRAS wild-type to KD for KRAS),[1],C (A compound having a KD ratio of 0.1 or more and less than 3 is denoted as C)
same,HRAS/KRAS (ratio of KD for GDP-bound HRAS wild-type to KD for KRAS),[2],B (a compound having 3 or more and less than 10 is denoted as B)
